Test results published in ChEMBL document CHEMBL4680170, “Anticancer activity of 4'-phenyl-2,2':6',2″-terpyridines - behind the metal complexation” (Eur J Med Chem, 2020).
One block for each compound: values may come before it. The source made the active and inactive calls. No cut-off for these calls is given here.

Experiments:
MCF7 [1] = assay: Antiproliferative activity against human MCF-7 cells assessed as reduction in cell viability measured after 72 hrs by MTS assay; type: functional, cell-based; details: MCF7, 72 h
A549 = assay: Antiproliferative activity against human A549 cells assessed as reduction in cell viability measured after 72 hrs by MTS assay; type: functional, cell-based; details: A549, 72 h
PANC-1 = assay: Antiproliferative activity against human PANC-1 cells assessed as reduction in cell viability measured after 72 hrs by MTS assay; type: functional, cell-based; details: PANC-1, 72 h
Calf thymus DNA [2] = assay: Binding affinity to calf thymus DNA assessed as DNA intercalation by measuring hypochromic shift incubated for 1.5 hrs by spectrophotometric analysis; type: tissue-based; details: Bos taurus
U-251 = assay: Antiproliferative activity against human U251 cells assessed as reduction in cell viability measured after 72 hrs by MTS assay; type: functional, cell-based; details: U-251, 72 h
MCF7 [3] = assay: Induction of apoptosis in human MCF-7 cells assessed as proportion of late apoptotic cells at 5 uM incubated for 48 hrs by Annexin V Muse cell analyzer based flow cytometry (reference value: 2.3%); type: functional
MCF7 [4] = assay: Induction of cell cycle arrest in human MCF-7 cells assessed as accumulation at G0/G1 phase at 2.5 uM incubated for 24 hrs by Muse cell analyzer based flow cytometry (reference value: 47.4%); type: functional
MCF7 [5] = assay: Antiproliferative activity against human MCF-7 cells assessed as reduction in cell viability measured after 72 hrs in presence of FeCl3 by MTS assay; type: functional, cell-based; details: MCF7, 72 h
DNA [6] = assay: Induction of Escherichia coli supercoiled pUC19 plasmid DNA cleavage assessed as open circular form formation at 50 uM incubated for 60 mins by agarose gel electrophoresis analysis; type: nucleic-acid assay
MCF7 [7] = assay: Induction of apoptosis in human MCF7 cells assessed as late apoptotic cells by measuring condensed and fragmented nuclei formation at 5 uM incubated for 24 hrs by AO/EB staining based fluorescence microscopy; type: functional, cell-based
MCF7 [8] = assay: Antiproliferative activity against human MCF-7 cells assessed as reduction in cell viability measured after 72 hrs in presence of CdSO4 by MTS assay; type: functional, cell-based; details: MCF7, 72 h
MCF7 [9] = assay: Induction of cell cycle arrest in human MCF-7 cells assessed as accumulation at G0/G1 phase at 1 uM incubated for 24 hrs by Muse cell analyzer based flow cytometry (reference value: 47.4%); type: functional
MCF7 [10] = assay: Induction of apoptosis in human MCF-7 cells assessed as proportion of necrotic cells at 5 uM incubated for 48 hrs by Annexin V Muse cell analyzer based flow cytometry (reference value: 0.45%); type: functional
MCF7 [11] = assay: Induction of apoptosis in human MCF-7 cells assessed as proportion of early apoptotic cells at 1 uM incubated for 48 hrs by Annexin V Muse cell analyzer based flow cytometry (reference value: 3.05%); type: functional
Calf thymus DNA [12] = assay: Binding affinity to calf thymus DNA assessed as DNA intercalation by measuring bathochromic shift incubated for 1.5 hrs by spectrophotometric analysis; type: tissue-based; details: Bos taurus
MCF7 [13] = assay: Induction of cell cycle arrest in human MCF-7 cells assessed as accumulation at S phase at 1 uM incubated for 24 hrs by Muse cell analyzer based flow cytometry (reference value: 11.1%); type: functional
MCF7 [14] = assay: Induction of apoptosis in human MCF7 cells assessed as decrease in p21 expression at 2.5 uM incubated for 24 hrs by immunoblot analysis; type: functional, cell-based
MCF7 [15] = assay: Induction of apoptosis in human MCF-7 cells incubated for 48 hrs by Annexin V Muse cell analyzer based flow cytometry; type: functional; details: dose 1-5 µM
MCF7 [16] = assay: Induction of apoptosis in human MCF-7 cells assessed as proportion of early apoptotic cells at 2.5 uM incubated for 48 hrs by Annexin V Muse cell analyzer based flow cytometry (reference value: 3.05%); type: functional
MCF7 [17] = assay: Induction of cell cycle arrest in human MCF-7 cells assessed as accumulation at S phase at 5 uM incubated for 24 hrs by Muse cell analyzer based flow cytometry (reference value: 11.1%); type: functional
MCF7 [18] = assay: Induction of cell cycle arrest in human MCF-7 cells assessed as accumulation at G2/M phase at 2.5 uM incubated for 24 hrs by Muse cell analyzer based flow cytometry (reference value: 36.9%); type: functional
MCF7 [19] = assay: Induction of apoptosis in human MCF7 cells assessed as early apoptotic cells by measuring chromatin condensation and nuclear fragmentation at 5 uM incubated for 24 hrs by AO/EB staining based fluorescence microscopy; type: functional, cell-based
MCF7 [20] = assay: Induction of apoptosis in human MCF7 cells assessed as increase in AIP protein expression at 2.5 uM incubated for 24 hrs by immunoblot analysis; type: functional, cell-based
MCF7 [21] = assay: Induction of apoptosis in human MCF-7 cells assessed as proportion of viable cells at 5 uM incubated for 48 hrs by Annexin V Muse cell analyzer based flow cytometry (reference value: 94.2%); type: functional
MCF7 [22] = assay: Induction of apoptosis in human MCF7 cells assessed as p53 activation at 2.5 uM incubated for 24 hrs by immunoblot analysis; type: functional, cell-based
MCF7 [23] = assay: Induction of apoptosis in human MCF-7 cells assessed as proportion of late apoptotic cells at 2.5 uM incubated for 48 hrs by Annexin V Muse cell analyzer based flow cytometry (reference value: 2.3%); type: functional
MCF7 [24] = assay: Induction of cell cycle arrest in human MCF-7 cells assessed as increase in cell accumulation at G0/G1 phase incubated for 24 hrs by Muse cell analyzer based flow cytometry; type: functional; details: dose 1-5 µM
MCF7 [25] = assay: Potency index, ratio of oxaliplatin IC50 to test compound IC50 for anticancer activity against human MCF7 cells measured after 72 hrs by MTS assay; type: functional
MCF7 [26] = assay: Antiproliferative activity against human MCF-7 cells assessed as reduction in cell viability measured after 72 hrs in presence of CuSO4 by MTS assay; type: functional, cell-based; details: MCF7, 72 h
MCF7 [27] = assay: Antiproliferative activity against human MCF-7 cells assessed as reduction in cell viability measured after 72 hrs in presence of FeSO4 by MTS assay; type: functional, cell-based; details: MCF7, 72 h
MCF7 [28] = assay: Antiproliferative activity against human MCF-7 cells assessed as reduction in cell viability measured after 72 hrs in presence of ZnCl2 by MTS assay; type: functional, cell-based; details: MCF7, 72 h
MCF7 [29] = assay: Induction of ROS generation in human MCF7 cells at 1 uM measured after 24 hrs by CellRox Green reagent/Hoechst 33342 staining based fluorescence analysis relative to control; type: functional
MCF7 [30] = assay: Induction of apoptosis in human MCF-7 cells assessed as proportion of early apoptotic cells at 5 uM incubated for 48 hrs by Annexin V Muse cell analyzer based flow cytometry (reference value: 3.05%); type: functional
DNA [31] = assay: Induction of Escherichia coli supercoiled pUC19 plasmid DNA cleavage assessed as linear form formation at 50 uM incubated for 60 mins by agarose gel electrophoresis analysis; type: nucleic-acid assay
MCF7 [32] = assay: Antiproliferative activity against human MCF-7 cells assessed as reduction in cell viability at 0.1 uM measured after 72 hrs in presence of CuSO4 by MTS assay; type: functional, cell-based
[33] = Drug uptake in human MCF7 cells mitochondria at 25 uM incubated for 2 hrs by MitoTracker Orange/LysoTracker staining based fluorescence microscopy; type: ADME; details: mcf7, 2 h
MCF7 [34] = assay: Antiproliferative activity against human MCF-7 cells assessed as reduction in cell viability at 0.1 uM measured after 72 hrs in presence of ZnCl2 by MTS assay; type: functional, cell-based
MCF7 [35] = assay: Antiproliferative activity against human MCF-7 cells assessed as reduction in cell viability at 0.1 uM measured after 72 hrs in presence of FeSO4 by MTS assay; type: functional, cell-based
MCF7 [36] = assay: Induction of apoptosis in human MCF-7 cells assessed as proportion of viable cells at 1 uM incubated for 48 hrs by Annexin V Muse cell analyzer based flow cytometry (reference value: 94.2%); type: functional
NHDF = assay: Cytotoxicity against human NHDF cells assessed as reduction in cell viability measured after 72 hrs by MTS assay; type: cell-based
MCF7 [37] = assay: Induction of cell cycle arrest in human MCF-7 cells assessed as accumulation at S phase at 2.5 uM incubated for 24 hrs by Muse cell analyzer based flow cytometry (reference value: 11.1%); type: functional
MCF7 [38] = assay: Induction of apoptosis in human MCF7 cells assessed as cytochrome c release into cytosol at 2.5 uM incubated for 24 hrs by immunoblot analysis; type: functional, cell-based
MCF7 [39] = assay: Induction of apoptosis in human MCF-7 cells assessed as proportion of necrotic cells at 1 uM incubated for 48 hrs by Annexin V Muse cell analyzer based flow cytometry (reference value: 0.45%); type: functional
MCF7 [40] = assay: Induction of cell cycle arrest in human MCF-7 cells assessed as accumulation at G0/G1 phase at 5 uM incubated for 24 hrs by Muse cell analyzer based flow cytometry (reference value: 47.4%); type: functional
MCF7 [41] = assay: Potency index, ratio of doxorubicin IC50 to test compound IC50 for anticancer activity against human MCF7 cells measured after 72 hrs by MTS assay; type: functional
MCF7 [42] = assay: Induction of cell cycle arrest in human MCF-7 cells assessed as accumulation at G2/M phase at 1 uM incubated for 24 hrs by Muse cell analyzer based flow cytometry (reference value: 36.9%); type: functional
MCF7 [43] = assay: Antiproliferative activity against human MCF-7 cells assessed as reduction in cell viability at 0.1 uM measured after 72 hrs in presence of FeCl3 by MTS assay; type: functional, cell-based
MCF7 [44] = assay: Induction of apoptosis in human MCF-7 cells assessed as proportion of late apoptotic cells at 1 uM incubated for 48 hrs by Annexin V Muse cell analyzer based flow cytometry (reference value: 2.3%); type: functional
MCF7 [45] = assay: Induction of cell cycle arrest in human MCF-7 cells assessed as accumulation at G2/M phase at 5 uM incubated for 24 hrs by Muse cell analyzer based flow cytometry (reference value: 36.9%); type: functional
MCF7 [46] = assay: Induction of apoptosis in human MCF-7 cells assessed as proportion of viable cells at 2.5 uM incubated for 48 hrs by Annexin V Muse cell analyzer based flow cytometry (reference value: 94.2%); type: functional
MCF7 [47] = assay: Induction of apoptosis in human MCF-7 cells assessed as proportion of necrotic cells at 2.5 uM incubated for 48 hrs by Annexin V Muse cell analyzer based flow cytometry (reference value: 0.45%); type: functional
MCF7 [48] = assay: Induction of ROS generation in human MCF7 cells at 1 uM measured after 1 hr by CellRox Green reagent/Hoechst 33342 staining based fluorescence analysis; type: functional, cell-based
HCT-116 = assay: Antiproliferative activity against human HCT 116 cells assessed as reduction in cell viability measured after 72 hrs by MTS assay; type: functional, cell-based; details: HCT-116, 72 h
MCF7 [49] = assay: Antiproliferative activity against human MCF-7 cells assessed as reduction in cell viability at 0.1 uM measured after 72 hrs in presence of CdSO4 by MTS assay; type: functional, cell-based

IC50 (MCF7 [1]): 0.41 µM | IC50 (A549): 1.06 µM | IC50 (PANC-1): 0.73 µM | IC50 (U-251): 0.05 µM
Structure (SMILES): COc1cccc2c1C(=O)c1c(O)c3c(c(O)c1C2=O)C[C@@](O)(C(=O)CO)C[C@@H]3O[C@H]1C[C@H](N)[C@H](O)[C@H](C)O1 [DOXORUBICIN]
Activity (Calf thymus DNA [2]): 34.2%

IC50 (MCF7 [5]): 1 µM | Activity (DNA [6]): Active | IC50 (MCF7 [8]): 1 µM | IC50 (MCF7 [1]): 0.04 µM | IC50 (A549): 0.75 µM | IC50 (PANC-1; read-out: IC50): 0.44 µM | IC50 (MCF7 [26]): 0.039 µM | IC50 (MCF7 [27]): 1 µM | IC50 (MCF7 [28]): 1 µM | IC50 (U-251): 0.14 µM | Activity (DNA [31]): Active | Drug uptake [33]: Active | IC50 (HCT-116): 0.27 µM
Structure (SMILES): CCCCCCCCCCn1cc(-c2ccc(-c3cc(-c4ccccn4)nc(-c4ccccn4)c3)cc2)nn1
Activity (MCF7 [3]): 15.3% | Activity (MCF7 [4]): 57.4% | Activity (MCF7 [7]): Active | Activity (MCF7 [9]): 45.5% | Activity (MCF7 [10]): 6.9% | Activity (MCF7 [11]): 3.45% | Activity (Calf thymus DNA [12]): Active | Activity (MCF7 [13]): 16.3% | Activity (MCF7 [14]): Active | Activity (MCF7 [15]): Dose-dependent effect | Activity (MCF7 [16]): 8.95% | Activity (MCF7 [17]): 14.3% | Activity (MCF7 [18]): 25.2% | Activity (MCF7 [19]): Active | Activity (MCF7 [20]): Active | Activity (MCF7 [21]): 47.6% | Activity (MCF7 [22]): inactive | Activity (Calf thymus DNA [2]): 18.2% | Activity (MCF7 [23]): 16.25% | Activity (MCF7 [24]): Dose-dependent effect | Ratio IC50 (MCF7 [25]): 26 | Activity (MCF7 [29]): 140% | Activity (MCF7 [30]): 30.2% | Activity (MCF7 [32]): Active | Activity (MCF7 [34]): Active | Activity (MCF7 [35]): Active | Activity (MCF7 [36]): 79.1% | IC50 (NHDF): 20.8 µM | Activity (MCF7 [37]): 13.7% | Activity (MCF7 [38]): Active | Activity (MCF7 [39]): 8.9% | Activity (MCF7 [40]): 66.2% | Ratio IC50 (MCF7 [41]): 10 | Activity (MCF7 [42]): 34.3% | Activity (MCF7 [43]): Active | Activity (MCF7 [44]): 8.55% | Activity (MCF7 [45]): 24% | Activity (MCF7 [46]): 69.9% | Activity (MCF7 [47]): 4.9% | Activity (MCF7 [48]): Active | Activity (MCF7 [49]): Active
